Source: PMC11089505, “Structural Elucidation and Antiviral Activity of Covalent Cathepsin L Inhibitors” (Journal of Medicinal Chemistry, 2024)
Values joined by “and” are separate entries in the source; they are usually repeats but may differ in a detail not shown here. Equal values may be shown once. Read-outs that look alike come from different tables or passages of the source. Peptide text beside a SMILES is read from it. * marks the point of attachment. Cbz = O=C(OCc1ccccc1)*

Legend:
[1] = system: SARS-CoV-2-GFP in Vero E6 cells; assay: microbe, parasite or virus in culture; assay type: cell-based; conditions: Severe acute respiratory syndrome coronavirus 2, Vero C1008, 48 h, read-out: EC50 (48 h)
CatL [2] = molecular target: T1, CatL (Homo sapiens, UniProt P07711, T223A); assay: NanoDSF, thermal stability of CatL; assay type: binding
T1 construct: made in house; host or cells: Komagataella pastoris strain GS115

SARS-CoV-2 Mpro = SARS-CoV-2 Mpro (Severe acute respiratory syndrome coronavirus 2, UniProt P0DTD1); assay type: binding; conditions: 2:1 compound to protein
CatL [3] = molecular target: T1, CatL; assay: CatL inactivation assay comparing epoxides at pH 6 and pH 4; assay type: biochemical
Description: (§1) Experiments were performed in a solution of 50 mM sodium acetate, pH 4.0, 50 mM NaCl, 0.1% PEG 6000, and 5 mM DTT. Distinct assays with epoxide inhibitors at pH 6.0 were performed in 50 mM sodium phosphate buffer, 50 mM NaCl, 5 mM DTT, 0.1% PEG 6000, adjusted to pH 6.0.
(§2) M1000 pro plate reader (Tecan), the fluorescent peptide substrate Z-RR-AMC, and excitation and emission wavelengths of 370 and 460 nm, respectively.
(§3) At first, the inhibitor concentration span was optimized for each inhibitor and the assay buffer. For this initial screening, CatL (5 nM) was mixed with different concentrations of inhibitors (1 nM–50 μM) to determine the range of their inhibition. […] Reaction data were fitted to the […] in GraphPad Prism 9 software: Y = bottom + (top – bottom)/(1 + 10^∧((log IC50 – X) × HillSlope)); X is the log of dose or concentration, Y is the response (fluorescence signal), decreasing as X increases, top and bottom are the plateaus in the same units as Y, log IC50 same log units as X, HillSlope is the slope factor or called the Hill slope.
Figure S7. Inactivation of CatL.
(1 picture or pasted object on this page, not shown here)

cathepsin L = molecular target: T2, cathepsin L (Homo sapiens, UniProt P07711, T223A); assay: MALDI-TOF analysis of covalent CatL-inhibitor complex; assay type: binding; conditions: 37 °C
T2 construct: made in house; host or cells: Komagataella pastoris strain GS115
Description: Experiments were performed in two different buffers, one at pH 4.0 (100 mM sodium acetate, pH 4.0, 50 mM NaCl, 5 mM DTT) and the other at pH 6.0 (100 mM sodium phosphate, pH 6.0, 50 mM NaCl, 5 mM DTT).
Mass spectrometry was performed on an UltrafleXtreme III MALDI-TOF/TOF mass spectrometer (Bruker, Billerica, MA). Samples were prepared on a standard steel target as described by Wenzel et al.[71] The spectra were acquired in a linear mode with a mass range of 20–50 kDa. […] The spectra were externally calibrated with aldolase and BSA standards (Sigma-Aldrich). Acquisition, processing, and calibration were performed using FlexControl 3.0 and FlexAnalysis software (Bruker).
(B) Two-dimensional interaction plot based on chain A according to Dis-
Figure S6. […] Activated matured cathepsin L (3 µM)
Molar ratio 1:10 pH = 4.0
Molar ratio 1:10 pH = 6.0 […]

[4] = Cell viability assay (CellTiter-Blue); conditions: African green monkey
Vero E6 cells = assay: Cell viability assay (CellTiter-Blue); conditions: Vero E6 cells
CatL [5] = molecular target: T1, CatL; assay: CatL inhibition assay (Ki), substrate Z-RR-AMC; assay type: biochemical
Description: as §1, §2, §3

CatL [6] = conditions: Table S1, SI reference list; cited from earlier work
[7] = in DMSO; compound supply and quality parameters, supplier named in Table S4; cited from earlier work

T1 sequence (P07711 114-333 T223A): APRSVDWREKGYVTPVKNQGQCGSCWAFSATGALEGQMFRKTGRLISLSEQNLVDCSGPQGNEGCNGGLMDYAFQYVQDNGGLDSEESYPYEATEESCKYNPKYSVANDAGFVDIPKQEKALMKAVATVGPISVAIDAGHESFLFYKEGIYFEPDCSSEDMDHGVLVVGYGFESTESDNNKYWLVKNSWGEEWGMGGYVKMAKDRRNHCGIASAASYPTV
T2 sequence (P07711 114-333 T223A): as above

SMILES: O=C(NCc1ccccc1)[C@H](Cc1ccccc1)NC(=O)[C@H]1O[C@@H]1C(=O)NCCc1ccc(O)cc1 [CAA0225, (2S.3S)-2-N-[(1S)-1-(Benzylcarbamoyl)-2-phenylethyl]-3-N-[2-(4-hydroxyphenyl)ethyl]oxirane-2.3-dicarboxamide]
- EC50 [1]: < 0.5 µM
- 2:1, Tm average (CatL) (CatL [2]; 2:1 compound to protein): 70 °C
- 20:1, Tm average (CatL) (CatL [2]; 20:1 compound to protein): 78.5 °C
- 2:1, Tm average (Mpro) (SARS-CoV-2 Mpro): 53.3 °C
- Inactivation Rate (CatL [3]; CAA0225, pH 4, 4.39 nM): 0.0001763 per second
- Inactivation Rate (CatL [3]; CAA0225, pH 4, 5.85 nM): 0.0002627 per second
- Inactivation Rate (CatL [3]; CAA0225, pH 4, 6.59 nM): 0.0001334 per second
- Inactivation Rate (CatL [3]; CAA0225, pH 4, 8.78 nM): 0.0003675 per second and 0.0002752 per second
- Inactivation Rate (CatL [3]; CAA0225, pH 4, 9.88 nM): 0.0001166 per second
- Inactivation Rate (CatL [3]; CAA0225, pH 4, 13.17 nM): 0.0002828 per second and 0.0003022 per second
- Inactivation Rate (CatL [3]; CAA0225, pH 4, 14.82 nM): 0.0003059 per second
- Inactivation Rate (CatL [3]; CAA0225, pH 4, 19.75 nM): 0.0002683 per second and 0.0004006 per second
- Inactivation Rate (CatL [3]; CAA0225, pH 4, 22.22 nM): 0.0004569 per second
- Inactivation Rate (CatL [3]; CAA0225, pH 4, 29.63 nM): 0.0004182 per second and 0.0006192 per second
- Inactivation Rate (CatL [3]; CAA0225, pH 4, 33.34 nM): 0.0007535 per second
- Inactivation Rate (CatL [3]; CAA0225, pH 4, 44.44 nM): 0.0007461 per second and 0.001023 per second
- Inactivation Rate (CatL [3]; CAA0225, pH 4, 50.00 nM): 0.001182 per second
- Inactivation Rate (CatL [3]; CAA0225, pH 4, 66.67 nM): 0.001354 per second and 0.001764 per second
- Inactivation Rate (CatL [3]; CAA0225, pH 4, 100.00 nM): 0.001979 per second
- Inactivation Rate (CatL [3]; CAA0225, pH 6, 4.39 nM): 0.0002723 per second
- Inactivation Rate (CatL [3]; CAA0225, pH 6, 5.85 nM): 0.0006424 per second and 0.0005666 per second
- Inactivation Rate (CatL [3]; CAA0225, pH 6, 6.59 nM): 0.0004593 per second
- Inactivation Rate (CatL [3]; CAA0225, pH 6, 8.78 nM): 0.001025 per second and 0.001163 per second
- Inactivation Rate (CatL [3]; CAA0225, pH 6, 9.88 nM): 0.0009595 per second
- Inactivation Rate (CatL [3]; CAA0225, pH 6, 13.17 nM): 0.001923 per second and 0.002013 per second
- Inactivation Rate (CatL [3]; CAA0225, pH 6, 14.82 nM): 0.001982 per second
- Inactivation Rate (CatL [3]; CAA0225, pH 6, 19.75 nM): 0.00308 per second and 0.003226 per second
- Inactivation Rate (CatL [3]; CAA0225, pH 6, 22.22 nM): 0.003696 per second
- Inactivation Rate (CatL [3]; CAA0225, pH 6, 29.63 nM): 0.00521 per second and 0.005796 per second
- Inactivation Rate (CatL [3]; CAA0225, pH 6, 33.34 nM): 0.006322 per second
- Inactivation Rate (CatL [3]; CAA0225, pH 6, 44.44 nM): 0.007455 per second and 0.01045 per second
- Inactivation Rate (CatL [3]; CAA0225, pH 6, 50.00 nM): 0.009878 per second
- Inactivation Rate (CatL [3]; CAA0225, pH 6, 66.66 nM): 0.01058 per second and 0.01915 per second
- Mass change of cathepsin L main peak with vs without inhibitor (cathepsin L; pH 4.0, molar ratio 1:10, 15 min): 477.7 Da
- Mass change of cathepsin L main peak with vs without inhibitor (cathepsin L; pH 6.0, molar ratio 1:10, 15 min): 493.8 Da
- viability at 48 h, 1e-05 µM [4]: 103%
- viability at 48 h, 0.0001 µM [4]: 103%
- viability at 48 h, 0.001 µM [4]: 101%
- viability at 48 h, 0.01 µM [4]: 104%
- viability at 48 h, 0.1 µM [4]: 100%
- viability at 48 h, 1 µM [4]: 105%
- viability at 48 h, 10 µM [4]: 105%

SMILES: CC(C)C[C@@H](C=O)NC(=O)[C@H](CC(C)C)NC(=O)[C@H](CC(C)C)NC(=O)OCc1ccccc1 [MG-132, Z-Leu-Leu-Leu-aldehyde] (Cbz-Leu-Leu-Leu-aldehyde)
- 2:1, Tm average (CatL) (CatL [2]): 79.7 °C
- 20:1, Tm average (CatL) (CatL [2]): 81.7 °C
- ΔTm [K] for CatL, 2:1 ratio (CatL [2]): 16.6 ± 0.1 K
- ΔTm (for CatL), 2:1 compound to protein mixing ratio (CatL [2]; pH 5): 16,6 ± 0,1 °C and 16.6 °C
- ΔTm (for CatL), 20:1 compound to protein mixing ratio (CatL [2]; pH 5): 18,6 ± 0,1 °C and 18.6 °C
- cell toxicity (Vero E6 cells): notably high cell toxicity

SMILES: CCc1ccccc1NC(=O)CSC(=O)NNC(=O)[C@H](Cc1c[nH]c2ccccc12)NC(=O)OC(C)(C)C [TC-I, tert-Butyl N-[(2S)-1-[2-[2-(2-ethylanilino)-2-oxoethyl]sulfanylcarbonylhydrazinyl]-3-(1H-indol-3-yl)-1-oxopropan-2-yl]carbamate]
- ΔTm (for CatL), 2:1 compound to protein mixing ratio (CatL [2]; 5 µM CatL, pH 5.0, 2% DMSO, 2:1): 18,4 ± 0,1 °C and 18.4 °C
- ΔTm (for CatL), 20:1 compound to protein mixing ratio (CatL [2]; 5 µM CatL, pH 5.0, 2% DMSO, 20:1): 18,8 ± 0,0 °C and 18.8 °C
- 2:1, Tm average (CatL) (CatL [2]; 2:1 compound to protein): 81.5 °C
- 20:1, Tm average (CatL) (CatL [2]; 20:1 compound to protein): 81.9 °C
- ΔTm [K] for CatL, 2:1 ratio (CatL [2]; Table S1, 2:1 ratio): 18.4 ± 0.1 K
- Ki (CatL [5]; CatL, Z-RR-AMC, pH 4.0, 37 °C, read-out: Ki): 0.0714 µM
- Residual activity (Vi/V0) (CatL [5]; TC-I 0.665 nM): 0.9864 and 1.185
- remaining activity at 0.000665 µM (CatL [5]; TC-I 0.665 nM, read-out: Residual activity (Vi/V0)): 100%
- Residual activity (Vi/V0) (CatL [5]; TC-I 1.109 nM): 0.9905 and 1.057
- remaining activity at 0.001109 µM (CatL [5]; TC-I 1.109 nM, read-out: Residual activity (Vi/V0)): 98.8%
- Residual activity (Vi/V0) (CatL [5]; TC-I 1.849 nM): 0.9855 and 1.105
- remaining activity at 0.001849 µM (CatL [5]; TC-I 1.849 nM, read-out: Residual activity (Vi/V0)): 103%
- Residual activity (Vi/V0) (CatL [5]; TC-I 3.082 nM): 1.069 and 1.158
- remaining activity at 0.003082 µM (CatL [5]; TC-I 3.082 nM, read-out: Residual activity (Vi/V0)): 111%
- Residual activity (Vi/V0) (CatL [5]; TC-I 5.140 nM): 1.026 and 1.097
- remaining activity at 0.00514 µM (CatL [5]; TC-I 5.140 nM, read-out: Residual activity (Vi/V0)): 104%
- Residual activity (Vi/V0) (CatL [5]; TC-I 8.568 nM): 1.0471 and 1.09
- remaining activity at 0.008568 µM (CatL [5]; TC-I 8.568 nM, read-out: Residual activity (Vi/V0)): 105%
- Residual activity (Vi/V0) (CatL [5]; TC-I 14.274 nM): 0.9298 and 0.9778
- remaining activity at 0.014274 µM (CatL [5]; TC-I 14.274 nM, read-out: Residual activity (Vi/V0)): 100%
- Residual activity (Vi/V0) (CatL [5]; TC-I 23.798 nM): 0.9534 and 0.9214
- remaining activity at 0.023798 µM (CatL [5]; TC-I 23.798 nM, read-out: Residual activity (Vi/V0)): 93.3%
- Residual activity (Vi/V0) (CatL [5]; TC-I 39.658 nM): 0.9235 and 0.9214
- remaining activity at 0.039658 µM (CatL [5]; TC-I 39.658 nM, read-out: Residual activity (Vi/V0)): 74.6%
- Residual activity (Vi/V0) (CatL [5]; TC-I 66.096 nM): 0.583 and 0.7717 and 0.8256
- Residual activity (Vi/V0) (CatL [5]; TC-I 110.160 nM): 0.683 and 0.704
- remaining activity at 0.11016 µM (CatL [5]; TC-I 110.160 nM, read-out: Residual activity (Vi/V0)): 51.2%
- Residual activity (Vi/V0) (CatL [5]; TC-I 183.600 nM): 0.3014 and 0.3466 and 0.5578
- IC50 (CatL [6]): 0.0069 µM
- Solvent (max. solubility) [7]: 50 mg/mL
